Measured values published in PubChem BioAssay AID248 (DTP/NCI, 2004).
Where “and” joins values, the source holds several entries; their conditions need not be identical. Identical values can stand only once. Inconclusive results and toxic doses are left out. No stated cut-off is given here; in the data, active means T/C of 150% or more; inactive means T/C below 125%.

Tested on: L1210 leukemia ip in BDF1 mice, survival T/C
Experiment: NCI In Vivo Anticancer Drug Screen. Data for tumor model L1210 Leukemia (intraperitoneal) in B6D2F1 (BDF1) mice
Conditions: endpoint: mean survival time, higher = longer survival
How it was run: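 Transplanted-tumor mice were given test agent; controls received vehicle only. Survival readings from the two groups were divided (treated over control).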

[1] = dose: 100.0 mg/kg/injection, schedule: Q01DX009 (ip), vehicle: saline with Tween-80
[2] = dose: 200.0 mg/kg/injection, schedule: Q01DX009 (ip), vehicle: saline with Tween-80
[3] = dose: 400.0 mg/kg/injection, schedule: Q01DX009 (ip), vehicle: saline with Tween-80
[4] = dose: 100.0 mg/kg/injection, schedule: Q04DX003 (ip), vehicle: other
[5] = dose: 100.0 mg/kg/injection, schedule: Q04DX003 (ip), vehicle: saline
[6] = dose: 200.0 mg/kg/injection, schedule: Q04DX003 (ip), vehicle: other
[7] = dose: 200.0 mg/kg/injection, schedule: Q04DX003 (ip), vehicle: saline
[8] = dose: 100.0 mg/kg/injection, schedule: Q04DX003 (ip), vehicle: Klucel (hydroxypropylcellulose) (HPC)
[9] = dose: 200.0 mg/kg/injection, schedule: Q04DX003 (ip), vehicle: Klucel (hydroxypropylcellulose) (HPC)
[10] = dose: 400.0 mg/kg/injection, schedule: Q04DX003 (ip), vehicle: saline
[11] = dose: 100.0 mg/kg/injection, schedule: Q04DX003 (ip), vehicle: gum acacia
[12] = dose: 200.0 mg/kg/injection, schedule: Q04DX003 (ip), vehicle: gum acacia
[13] = dose: 400.0 mg/kg/injection, schedule: Q04DX003 (ip), vehicle: gum acacia
[14] = dose: 50.0 mg/kg/injection, schedule: Q01DX009 (ip), vehicle: saline
[15] = dose: 100.0 mg/kg/injection, schedule: Q01DX009 (ip), vehicle: saline
[16] = dose: 200.0 mg/kg/injection, schedule: Q01DX009 (ip), vehicle: saline
[17] = dose: 100.0 mg/kg/injection, schedule: Q01DX001 (ip), vehicle: saline with Tween-80
[18] = dose: 200.0 mg/kg/injection, schedule: Q01DX001 (ip), vehicle: saline with Tween-80
[19] = dose: 400.0 mg/kg/injection, schedule: Q01DX001 (ip), vehicle: saline with Tween-80

Measured: T/C

O=C(CC(O)(C(F)(F)F)C(F)(F)F)c1c2ccccc2cc2ccccc12
inactive: [1] 98 % of control | [2] 109 % of control | [3] 98 % of control

OCCOc1cc(Cl)c(Cl)cc1Cl
inactive: dose: 25.0 mg/kg/injection, schedule: Q04DX003 (ip), vehicle: carboxymethylcellulose (CMC) 95 % of control | dose: 50.0 mg/kg/injection, schedule: Q01DX009 (ip), vehicle: carboxymethylcellulose (CMC) 93 % of control and 102 % of control | dose: 50.0 mg/kg/injection, schedule: Q04DX003 (ip), vehicle: carboxymethylcellulose (CMC) 101 % of control | dose: 100.0 mg/kg/injection, schedule: Q01DX009 (ip), vehicle: carboxymethylcellulose (CMC) 101 % of control and 103 % of control | [1] 103 % of control | dose: 100.0 mg/kg/injection, schedule: Q04DX002 (ip), vehicle: carboxymethylcellulose (CMC) 102 % of control and 103 % of control | dose: 100.0 mg/kg/injection, schedule: Q04DX003 (ip), vehicle: carboxymethylcellulose (CMC) 95 % of control | [2] 87 % of control | dose: 200.0 mg/kg/injection, schedule: Q04DX002 (ip), vehicle: carboxymethylcellulose (CMC) 103 % of control

CC1=CC(=O)N(N)C1=O
inactive: [1] 102 % of control | dose: 100.0 mg/kg/injection, schedule: Q04DX003 (ip), vehicle: saline with Tween-80 98 % of control | [2] 104 % of control | dose: 200.0 mg/kg/injection, schedule: Q04DX003 (ip), vehicle: saline with Tween-80 100 % of control | [3] 100 % of control | dose: 400.0 mg/kg/injection, schedule: Q04DX003 (ip), vehicle: saline with Tween-80 96 % of control

O=C(O)c1cc(N=Nc2ccccc2)ccc1O
inactive: dose: 50.0 mg/kg/injection, schedule: Q01DX009 (ip), vehicle: saline with Tween-80 96 % of control | dose: 50.0 mg/kg/injection, schedule: Q04DX003 (ip), vehicle: other 93 % of control | dose: 100.0 mg/kg/injection, schedule: Q01DX001 (ip), vehicle: other 101 % of control | [1] 94 % of control | [4] 93 % of control | [5] 96 % of control | dose: 200.0 mg/kg/injection, schedule: Q01DX001 (ip), vehicle: other 107 % of control | [6] 98 % of control | [7] 87 % of control

N#C/C(=C\c1cccs1)c1ccccc1
inactive: dose: 50.0 mg/kg/injection, schedule: Q04DX003 (ip), vehicle: Klucel (hydroxypropylcellulose) (HPC) 110 % of control | [8] 98 % of control | [9] 104 % of control

CC(=O)Nc1ccc(P(=O)(O)O)cc1[N+](=O)[O-]
inactive: [5] 91 % of control | [7] 102 % of control | [10] 115 % of control

O=C(CBr)OCC1CC2C=CC1C2 (centres undefined)
inactive: dose: 13.3 mg/kg/injection, schedule: Q01DX Z (ip), vehicle: methylcellulose (MC) 93 % of control | dose: 20.0 mg/kg/injection, schedule: Q01DX Z (ip), vehicle: methylcellulose (MC) 96 % of control | dose: 30.0 mg/kg/injection, schedule: Q01DX Z (ip), vehicle: methylcellulose (MC) 90 % of control

Cc1ccccc1N=P(c1ccccc1)(c1ccccc1)c1ccccc1
inactive: dose: 100.0 mg/kg/injection, schedule: Q01DX009 (ip), vehicle: gum acacia 100 % of control | [11] 93 % of control | dose: 200.0 mg/kg/injection, schedule: Q01DX009 (ip), vehicle: gum acacia 102 % of control | [12] 90 % of control | [13] 93 % of control

Cc1nn(-c2ccccc2)c(N)c1C#N
inactive: dose: 25.0 mg/kg/injection, schedule: Q01DX009 (ip), vehicle: saline 100 % of control | [14] 97 % of control | dose: 75.0 mg/kg/injection, schedule: Q01DX009 (ip), vehicle: saline 98 % of control | [15] 103 % of control and 121 % of control | dose: 150.0 mg/kg/injection, schedule: Q01DX009 (ip), vehicle: saline 103 % of control | [16] 106 % of control

Cc1ccc(S(=O)(=O)CC(=O)NC(N)=O)cc1
inactive: [5] 92 % of control | [7] 103 % of control | [10] 105 % of control

CC(=O)C1CC2C=CCC(C2)C1 (centres undefined)
inactive: [17] 95 % of control | [18] 90 % of control | [19] 96 % of control

CC12C(=O)NC(=O)N3CCCN4C(=O)NC(=O)C1(C)C4C32 (centres undefined)
inactive: dose: 75.0 mg/kg/injection, schedule: Q01DX001 (ip), vehicle: saline 94 % of control | dose: 150.0 mg/kg/injection, schedule: Q01DX001 (ip), vehicle: saline 97 % of control | dose: 300.0 mg/kg/injection, schedule: Q01DX001 (ip), vehicle: saline 100 % of control

O=C(NNc1ccccc1OCc1ccccc1)C(F)(F)F
inactive: [17] 100 % of control | [18] 103 % of control | [19] 95 % of control

CC1(C)OC2OC(COC(=O)c3ccc([N+](=O)[O-])cc3)C(OC(=O)c3ccc([N+](=O)[O-])cc3)C2O1 (centres undefined)
inactive: dose: 100.0 mg/kg/injection, schedule: Q01DX001 (ip), vehicle: steriod suspending solution 87 % of control | dose: 200.0 mg/kg/injection, schedule: Q01DX001 (ip), vehicle: steriod suspending solution 95 % of control | dose: 400.0 mg/kg/injection, schedule: Q01DX001 (ip), vehicle: steriod suspending solution 104 % of control

N#Cc1c(N)n(C2OC(CO)C(O)C2O)c2ncnc(N)c12 (centres undefined)
inactive: dose: 1.0 mg/kg/injection, schedule: Q01DX005 (ip), vehicle: saline 115 % of control | dose: 2.0 mg/kg/injection, schedule: Q01DX005 (ip), vehicle: saline 120 % of control

CC(=O)C1CCCC1=O (centres undefined)
inactive: dose: 100.0 mg/kg/injection, schedule: Q01DX001 (ip), vehicle: acetone 103 % of control | dose: 100.0 mg/kg/injection, schedule: Q04DX003 (ip), vehicle: acetone 97 % of control | dose: 200.0 mg/kg/injection, schedule: Q01DX001 (ip), vehicle: acetone 97 % of control | dose: 200.0 mg/kg/injection, schedule: Q04DX003 (ip), vehicle: acetone 97 % of control | dose: 400.0 mg/kg/injection, schedule: Q01DX001 (ip), vehicle: acetone 95 % of control | dose: 400.0 mg/kg/injection, schedule: Q04DX003 (ip), vehicle: acetone 95 % of control

Cc1ccc(-n2c(O)c(C=N)c(=O)[nH]c2=O)cc1
inactive: [1] 97 % of control | [2] 93 % of control

O=C(O)c1cc(-c2cccs2)c(C(=O)O)s1
inactive: [4] 103 % of control | [6] 93 % of control

CNC(=Nc1ccc(NC(=O)c2ccc(C(=O)Nc3ccc(N=C(NC)c4ccccc4)cc3)cc2)cc1)c1ccccc1
inactive: dose: 3.75 mg/kg/injection, schedule: Q01DX Z (ip), vehicle: saline 106 % of control | dose: 7.5 mg/kg/injection, schedule: Q01DX Z (ip), vehicle: saline 100 % of control | dose: 15.0 mg/kg/injection, schedule: Q01DX Z (ip), vehicle: other 91 % of control | dose: 15.0 mg/kg/injection, schedule: Q01DX Z (ip), vehicle: saline 105 % of control

O=C(Oc1ccc([N+](=O)[O-])cc1)c1ccc(CBr)cc1
inactive: [14] 104 % of control | [15] 102 % of control | [5] 94 % of control | [16] 94 % of control | [7] 94 % of control

CS(=O)(=O)OCCN(CCOS(C)(=O)=O)c1ccc(C=Nc2ccc3ccccc3c2)c(Cl)c1
inactive: [8] 103 % of control and 107 % of control | [9] 113 % of control | dose: 400.0 mg/kg/injection, schedule: Q04DX003 (ip), vehicle: Klucel (hydroxypropylcellulose) (HPC) 118 % of control

N#Cc1cnc(SCC(=O)O)nc1N
inactive: dose: 100.0 mg/kg/injection, schedule: Q01DX001 (ip), vehicle: saline 96 % of control | dose: 200.0 mg/kg/injection, schedule: Q01DX001 (ip), vehicle: saline 102 % of control | dose: 400.0 mg/kg/injection, schedule: Q01DX001 (ip), vehicle: saline 102 % of control

c1ccc(-c2cc(-c3ccncc3)c(-c3ccccc3)nn2)cc1
inactive: [11] 102 % of control | [12] 96 % of control | [13] 96 % of control

[N-]=[N+]=NC(c1ccccc1)S(=O)c1ccccc1 (centres undefined)
inactive: dose: 100.0 mg/kg/injection, schedule: Q04DX002 (ip), vehicle: Klucel (hydroxypropylcellulose) (HPC) 90 % of control | dose: 200.0 mg/kg/injection, schedule: Q04DX002 (ip), vehicle: Klucel (hydroxypropylcellulose) (HPC) 108 % of control
